Reference: patent US20230233569A1 (Revolution Medicines, Inc., priority 2020, published 2023)

Assays:
Capan-1 (K-Ras G12V) = experiment: CellTiter-Glo cell viability assay, 5-day treatment; assay type: cell-based; details: Homo sapiens, CAPAN-1, 120 h, 5-day treatment; read-out: Capan-1 Cell Viability assay data (K-Ras G12V, IC50)
In short: (§1)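 Five-day compound treatment of plated cells; luminescent read after ~30 min at RT. Percent-of-DMSO data fit to a four-parameter logistic model.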

NCI-H358 (K-Ras G12C) = experiment: as above; assay type: cell-based; details: Homo sapiens, NCI-H358, 120 h, 5-day treatment; read-out: H358 Cell Viability assay data (K-Ras G12C, IC50)
In short: as §1

KRAS G12C = KRAS G12C (Homo sapiens, UniProt P01116+P62937, G12C); experiment: Disruption of BRAF RBD interaction with Ras (FRET / MOA assay, with Cyclophilin A); assay type: biochemical; details: read-out: KRAS G12C FRET data, IC50
Chain of KRAS G12C (P01116 1-169 isoform P01116-2 G12C): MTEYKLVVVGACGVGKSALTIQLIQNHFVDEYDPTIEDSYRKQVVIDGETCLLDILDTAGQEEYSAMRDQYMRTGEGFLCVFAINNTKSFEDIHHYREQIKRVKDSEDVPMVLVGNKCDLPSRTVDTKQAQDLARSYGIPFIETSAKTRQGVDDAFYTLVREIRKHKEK
Chain of KRAS G12C (P62937 whole entry): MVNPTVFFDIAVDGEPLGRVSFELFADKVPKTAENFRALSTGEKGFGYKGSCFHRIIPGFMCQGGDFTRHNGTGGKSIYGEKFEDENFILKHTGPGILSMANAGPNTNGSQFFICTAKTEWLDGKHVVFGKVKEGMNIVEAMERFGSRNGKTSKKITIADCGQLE
In short: (§2)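 Measured via TR-FRET after 3 h at 25 °C with compound (30 μM top, threefold serial steps, ten concentrations) plus K-Ras, Cyclophilin A and BRAF RBD, followed by 1.5 h with anti-His europium (10 nM) and anti-GST allophycocyanin (50 nM). Signal loss versus DMSO gave IC50.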

KRAS G12D = KRAS G12D (Homo sapiens, UniProt P01116+P62937, G12D); experiment: as above; assay type: biochemical; details: read-out: KRAS G12D FRET data, IC50
Chain of KRAS G12D (P01116 1-169 isoform P01116-2 G12D limits assumed): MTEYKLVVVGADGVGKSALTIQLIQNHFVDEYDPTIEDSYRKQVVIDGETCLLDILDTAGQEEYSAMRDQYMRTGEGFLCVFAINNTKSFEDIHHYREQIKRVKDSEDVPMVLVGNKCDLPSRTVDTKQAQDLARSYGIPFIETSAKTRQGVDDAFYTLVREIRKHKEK
Chain of KRAS G12D (P62937 whole entry): as the sequence (P62937 whole entry) above
In short: as §2

KRAS G12S = KRAS G12S (Homo sapiens, UniProt P01116+P62937, G12S); experiment: as above; assay type: biochemical; details: read-out: KRAS G12S FRET data, IC50
Chain of KRAS G12S (P01116 1-169 isoform P01116-2 G12S limits assumed): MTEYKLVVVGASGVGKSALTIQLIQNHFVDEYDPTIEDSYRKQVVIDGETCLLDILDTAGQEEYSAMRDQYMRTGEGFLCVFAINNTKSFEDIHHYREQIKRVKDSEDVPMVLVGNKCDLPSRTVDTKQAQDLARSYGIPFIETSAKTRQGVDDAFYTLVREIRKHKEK
Chain of KRAS G12S (P62937 whole entry): as the sequence (P62937 whole entry) above
In short: as §2

KRAS G12V = KRAS G12V (Homo sapiens, UniProt P01116+P62937, G12V); experiment: as above; assay type: biochemical; details: KRAS G12V; read-out: KRAS G12V FRET data IC50
Chain of KRAS G12V (P01116 1-169 isoform P01116-2 G12V limits assumed): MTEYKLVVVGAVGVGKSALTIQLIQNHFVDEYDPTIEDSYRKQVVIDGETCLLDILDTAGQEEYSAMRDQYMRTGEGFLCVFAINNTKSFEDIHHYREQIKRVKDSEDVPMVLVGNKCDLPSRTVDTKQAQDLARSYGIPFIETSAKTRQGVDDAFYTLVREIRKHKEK
Chain of KRAS G12V (P62937 whole entry): as the sequence (P62937 whole entry) above
In short: as §2

KRAS G13C = KRAS G13C (Homo sapiens, UniProt P01116+P62937, G13C); experiment: as above; assay type: biochemical; details: read-out: KRAS G13C FRET data, IC50
Chain of KRAS G13C (P01116 1-169 isoform P01116-2 G13C): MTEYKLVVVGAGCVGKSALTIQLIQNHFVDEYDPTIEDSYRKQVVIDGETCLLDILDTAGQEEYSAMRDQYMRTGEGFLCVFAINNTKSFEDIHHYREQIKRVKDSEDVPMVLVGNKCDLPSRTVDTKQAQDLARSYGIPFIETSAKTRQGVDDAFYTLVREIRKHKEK
Chain of KRAS G13C (P62937 whole entry): as the sequence (P62937 whole entry) above
In short: as §2

KRAS G13D = KRAS G13D (Homo sapiens, UniProt P01116+P62937, G13D); experiment: as above; assay type: biochemical; details: KRAS G13D; read-out: KRAS G13D FRET data IC50
Chain of KRAS G13D (P01116 1-169 isoform P01116-2 G13D limits assumed): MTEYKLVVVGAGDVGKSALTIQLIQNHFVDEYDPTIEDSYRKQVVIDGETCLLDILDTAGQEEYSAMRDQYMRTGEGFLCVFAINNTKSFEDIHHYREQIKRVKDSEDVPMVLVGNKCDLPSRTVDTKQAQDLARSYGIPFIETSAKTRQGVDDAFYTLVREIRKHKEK
Chain of KRAS G13D (P62937 whole entry): as the sequence (P62937 whole entry) above
In short: as §2

KRAS WT = KRAS WT (Homo sapiens, UniProt P01116+P62937); experiment: as above; assay type: biochemical; details: KRAS WT; read-out: KRAS WT FRET data IC50
Chain of KRAS WT (P01116 1-169 isoform P01116-2 limits assumed): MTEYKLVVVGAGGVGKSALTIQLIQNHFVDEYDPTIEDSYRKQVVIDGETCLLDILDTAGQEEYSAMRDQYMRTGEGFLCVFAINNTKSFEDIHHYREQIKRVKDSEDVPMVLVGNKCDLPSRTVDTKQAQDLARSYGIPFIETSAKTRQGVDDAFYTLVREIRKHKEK
Chain of KRAS WT (P62937 whole entry): as the sequence (P62937 whole entry) above
In short: as §2

NRAS G12C = NRAS G12C (Homo sapiens, UniProt P01111+P62937, G12C); experiment: as above; assay type: biochemical; details: NRAS G12C; read-out: NRAS G12C FRET data IC50
Chain of NRAS G12C (P01111 whole entry G12C): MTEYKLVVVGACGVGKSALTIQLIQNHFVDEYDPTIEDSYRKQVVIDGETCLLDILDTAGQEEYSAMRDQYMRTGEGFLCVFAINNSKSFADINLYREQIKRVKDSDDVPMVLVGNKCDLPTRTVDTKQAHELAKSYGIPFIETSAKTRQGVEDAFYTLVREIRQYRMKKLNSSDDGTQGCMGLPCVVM
Chain of NRAS G12C (P62937 whole entry): as the sequence (P62937 whole entry) above

KRAS Q61H = KRAS Q61H (Homo sapiens, UniProt P01116+P62937, Q61H); experiment: as above; assay type: biochemical; details: KRAS Q61H; read-out: KRAS Q61H FRET data IC50
Chain of KRAS Q61H (P01116 1-169 isoform P01116-2 Q61H limits assumed): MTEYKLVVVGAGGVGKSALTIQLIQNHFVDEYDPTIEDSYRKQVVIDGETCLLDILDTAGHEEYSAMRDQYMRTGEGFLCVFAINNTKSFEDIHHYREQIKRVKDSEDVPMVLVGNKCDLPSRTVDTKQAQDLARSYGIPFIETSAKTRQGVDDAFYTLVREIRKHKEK
Chain of KRAS Q61H (P62937 whole entry): as the sequence (P62937 whole entry) above
In short: (§3)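 TR-FRET in 25 mM HEPES pH 7.3, 100 mM NaCl, 5 mM MgCl2, 0.1% BSA: 25 μM Cyclophilin A, 12.5 nM His6-Ras-GMPPNP, 50 nM GST-BRAF RBD with compound (10-point 3-fold series from 30 μM), 3 h at 25° C. Anti-His Eu/anti-GST APC added, 1.5 h more; IC50 from decreased FRET ratio versus DMSO.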

NRAS Q61K = NRAS Q61K (Homo sapiens, UniProt P01111+P62937, Q61K); experiment: as above; assay type: biochemical; details: NRAS Q61K; read-out: NRAS Q61K FRET data IC50
Chain of NRAS Q61K (P01111 whole entry Q61K): as the sequence (P01111 whole entry G12C) above, with C12G, Q61K counted along it
Chain of NRAS Q61K (P62937 whole entry): as the sequence (P62937 whole entry) above
In short: as §3

NRAS Q61R = NRAS Q61R (Homo sapiens, UniProt P01111+P62937, Q61R); experiment: as above; assay type: biochemical; details: NRAS Q61R; read-out: NRAS Q61R FRET data IC50
Chain of NRAS Q61R (P01111 whole entry Q61R): as the sequence (P01111 whole entry G12C) above, with C12G, Q61R counted along it
Chain of NRAS Q61R (P62937 whole entry): as the sequence (P62937 whole entry) above
In short: as §3

NRAS WT = NRAS WT (Homo sapiens, UniProt P01111+P62937); experiment: as above; assay type: biochemical; details: NRAS WT; read-out: NRAS WT FRET data IC50
Chain of NRAS WT (P01111 whole entry): as the sequence (P01111 whole entry G12C) above, with C12G counted along it
Chain of NRAS WT (P62937 whole entry): as the sequence (P62937 whole entry) above
In short: as §3

Compound | IC50 (NCI-H358 (K-Ras G12C)) [µM] | IC50 (KRAS G12C) [µM] | IC50 (KRAS G12D) [µM] | IC50 (KRAS G12S) [µM] | IC50 (KRAS G12V) [µM] | IC50 (KRAS G13C) [µM] | IC50 (KRAS G13D) [µM] | IC50 (KRAS WT) [µM] | IC50 (NRAS G12C) [µM] | IC50 (KRAS Q61H) [µM] | IC50 (NRAS Q61K) [µM] | IC50 (NRAS Q61R) [µM] | IC50 (NRAS WT) [µM] | IC50 (Capan-1 (K-Ras G12V)) [µM]
CCn1c(-c2cccnc2[C@H](C)OC)c2c3cc(ccc31)-c1csc(n1)C[C@H](NC(=O)[C@H](C(C)C)N(C)C(=O)N1C[C@H]3CN(C)C[C@H]31)C(=O)N1CCC[C@H](N1)C(=O)OCC(C)(C)C2 [Example A497] | 0.1 to 1 | 0.1 to 1 | 1 to 10 | 1 to 10 | 1 to 10 | 0.1 to 1 | 1 to 10 | 1 to 10 | 0.1 to 1 | 0.1 to 1 | 0.1 to 1 | 1 to 10 | 0.1 to 1 | 0.1 to 1
CCn1c(-c2cccnc2[C@H](C)OC)c2c3cc(ccc31)-c1csc(n1)C[C@H](NC(=O)[C@H](C(C)C)N(C)C(=O)N1CCCC13CCN(C)CC3)C(=O)N1CCC[C@H](N1)C(=O)OCC(C)(C)C2 [Example A498] | 0.01 to 0.1 | 0.01 to 0.1 | 0.1 to 1 | 0.01 to 0.1 | 0.1 to 1 | 0.1 to 1 | 0.1 to 1 | 0.01 to 0.1 | 0.01 to 0.1 | 0.01 to 0.1 | 0.1 to 1 | 0.1 to 1 | 0.01 to 0.1 | 0.1 to 1
CCn1c(-c2cccnc2[C@H](C)OC)c2c3cc(ccc31)-c1csc(n1)C[C@H](NC(=O)[C@H](C(C)C)N(C)C(=O)N(C)C[C@@H]1CCCN1C)C(=O)N1CCC[C@H](N1)C(=O)OCC(C)(C)C2 [Example A504] | 0.1 to 1 | 0.1 to 1 | 1 to 10 | 1 to 10 | 1 to 10 | 0.1 to 1 | 0.1 to 1 | 0.1 to 1 | 0.1 to 1 | 0.1 to 1 | 1 to 10 | 1 to 10 | 0.1 to 1 | 0.1 to 1
CCn1c(-c2cccnc2[C@H](C)OC)c2c3cc(ccc31)-c1csc(n1)C[C@H](NC(=O)[C@H](C(C)C)N(C)C(=O)N1CC3(CCN(C)CC3)C1)C(=O)N1CCC[C@H](N1)C(=O)OCC(C)(C)C2 [Example A513] | 0.01 to 0.1 | 0.1 to 1 | 1 to 10 | 0.1 to 1 | 0.1 to 1 | 0.1 to 1 | 0.1 to 1 | 0.1 to 1 | 0.1 to 1 | 0.1 to 1 | 0.1 to 1 | 0.1 to 1 | 0.1 to 1 | 0.01 to 0.1
CCn1c(-c2cccnc2[C@H](C)OC)c2c3cc(ccc31)-c1csc(n1)C[C@H](NC(=O)[C@H](C(C)C)N(C)C(=O)N1CCC[C@H]1CN(C)C)C(=O)N1CCC[C@H](N1)C(=O)OCC(C)(C)C2 [Example A519] | 1 to 10 | 0.1 to 1 | 1 to 10 | 1 to 10 | 1 to 10 | 1 to 10 | 1 to 10 | 0.1 to 1 | 0.1 to 1 | 0.1 to 1 | 1 to 10 | 1 to 10 | 0.1 to 1 | 1 to 10
CCn1c(-c2cccnc2[C@H](C)OC)c2c3cc(ccc31)-c1csc(n1)C[C@H](NC(=O)[C@H](C(C)C)N(C)C(=O)N1CC3CCN(C)CC31)C(=O)N1CCC[C@H](N1)C(=O)OCC(C)(C)C2 (stereo partly drawn) [Example A539] | 0.1 to 1 | 1 to 10 | 1 to 10 | 1 to 10 | 1 to 10 | 1 to 10 | 1 to 10 | 1 to 10 | 0.1 to 1 | 1 to 10 | 1 to 10 | 1 to 10 | 1 to 10 | 0.1 to 1
CCn1c(-c2cccnc2[C@H](C)OC)c2c3cc(ccc31)-c1csc(n1)C[C@H](NC(=O)[C@H](C(C)C)N(C)C(=O)N1CCN3CCOC[C@@H]3C1)C(=O)N1CCC[C@H](N1)C(=O)OCC(C)(C)C2 [Example A547] | 0.01 to 0.1 | 0.1 to 1 | 1 to 10 | 0.1 to 1 | 0.1 to 1 | 0.1 to 1 | 1 to 10 | 0.1 to 1 | 0.1 to 1 | 0.1 to 1 | 0.1 to 1 | 0.1 to 1 | 0.1 to 1 | 0.01 to 0.1

More lines, main results first:

IC50 (NCI-H358 (K-Ras G12C)) [µM] | IC50 (KRAS G12C) [µM] | IC50 (KRAS G12D) [µM] | IC50 (KRAS G12S) [µM] | IC50 (KRAS G12V) [µM] | IC50 (KRAS G13C) [µM] | IC50 (KRAS G13D) [µM] | IC50 (KRAS WT) [µM] | IC50 (NRAS G12C) [µM] | IC50 (KRAS Q61H) [µM] | IC50 (NRAS Q61K) [µM] | IC50 (NRAS Q61R) [µM] | IC50 (NRAS WT) [µM] | Compound | IC50 (Capan-1 (K-Ras G12V)) [µM]
0.01 to 0.1 | 0.1 to 1 | 1 to 10 | 1 to 10 | 1 to 10 | 1 to 10 | 1 to 10 | 1 to 10 | 0.1 to 1 | 0.1 to 1 | 0.1 to 1 | 0.1 to 1 | 1 to 10 | CCn1c(-c2cccnc2[C@H](C)OC)c2c3cc(ccc31)-c1csc(n1)C[C@H](NC(=O)[C@H](C(C)C)N(C)C(=O)N1CC3(CN(C)CCO3)C1)C(=O)N1CCC[C@H](N1)C(=O)OCC(C)(C)C2 [Example A499] | 0.01 to 0.1
0.01 to 0.1 | 0.1 to 1 | 0.1 to 1 | 0.1 to 1 | 1 to 10 | 0.1 to 1 | 0.1 to 1 | 0.1 to 1 | 0.1 to 1 | 0.01 to 0.1 | 0.1 to 1 | 0.1 to 1 | 0.1 to 1 | CCn1c(-c2cccnc2[C@H](C)OC)c2c3cc(ccc31)-c1csc(n1)C[C@H](NC(=O)[C@H](C(C)C)N(C)C(=O)N1CC[C@@H]1CN(C)C)C(=O)N1CCC[C@H](N1)C(=O)OCC(C)(C)C2 [Example A502] | 0.1 to 1
0.01 to 0.1 | 0.1 to 1 | 1 to 10 | 0.1 to 1 | 0.1 to 1 | 0.1 to 1 | 0.1 to 1 | 0.1 to 1 | 0.1 to 1 | 0.1 to 1 | 0.1 to 1 | 0.1 to 1 | 0.1 to 1 | CCn1c(-c2cccnc2[C@H](C)OC)c2c3cc(ccc31)-c1csc(n1)C[C@H](NC(=O)[C@H](C1CCCC1)N(C)C(=O)N1CCN(C)CC1)C(=O)N1CCC[C@H](N1)C(=O)OCC(C)(C)C2 [Example A525] | 0.01 to 0.1
0.1 to 1 | 0.1 to 1 | 1 to 10 | 0.1 to 1 | 0.1 to 1 | 0.1 to 1 | 0.1 to 1 | 0.1 to 1 | 0.1 to 1 | 0.1 to 1 | 0.1 to 1 | 0.1 to 1 | 0.1 to 1 | CCn1c(-c2cccnc2[C@H](C)OC)c2c3cc(ccc31)-c1csc(n1)C[C@H](NC(=O)[C@H](C(C)C)N(C)C(=O)N1CC([C@H](C)NC)C1)C(=O)N1CCC[C@H](N1)C(=O)OCC(C)(C)C2 [Example A535] | 0.1 to 1
0.01 to 0.1 | 0.1 to 1 | 1 to 10 | 0.1 to 1 | 0.1 to 1 | 0.1 to 1 | 1 to 10 | 0.1 to 1 | 0.1 to 1 | 0.1 to 1 | 0.1 to 1 | 0.1 to 1 | 0.1 to 1 | CCn1c(-c2cccnc2[C@H](C)OC)c2c3cc(ccc31)-c1csc(n1)C[C@H](NC(=O)[C@H](C(C)C)N(C)C(=O)N1C3CC1CN(C)C3)C(=O)N1CCC[C@H](N1)C(=O)OCC(C)(C)C2 [Example A541] | 0.1 to 1
